From patent US20240317775A1, “H4 Antagonist Compounds” (HEPTARES THERAPEUTICS LIMITED, priority 2020, published 2024)

How the values were obtained:
Assay type in all cases: cell-based
[1] = target: T1, hERG (Homo sapiens, UniProt Q12809); test: hERG pIC50 assay (QPatch automated patch clamp, CHO cells, 1, 3, 10 and 30 μM); conditions: CHO cells expressing hERG, 1-30 μM, ≤4.0 = fails to reach >40% block at 30 μM
From the text: (§1) Series resistance (4-15 MΩ) was compensated by >80%.

[2] = target: T1, hERG; test: hERG single-concentration assay (QPatch automated patch clamp, CHO cells, 30 μM); conditions: CHO cells stably expressing hERG
From the text: as §1

[3] = target: T2, human H4 receptor (Homo sapiens, UniProt Q9H3N8); test: H4 Antagonist Functional cAMP Gi Assay; conditions: HEKf cells expressing human H4 receptor; functional antagonist pKb by Cheng-Prusoff vs histamine; read-out: Human H4 cAMP fpKb (converted)
T2 construct: expressed in transfected cells; host or cells: HEKf cells infected with baculovirus
T2 sequence (Q9H3N8 whole entry): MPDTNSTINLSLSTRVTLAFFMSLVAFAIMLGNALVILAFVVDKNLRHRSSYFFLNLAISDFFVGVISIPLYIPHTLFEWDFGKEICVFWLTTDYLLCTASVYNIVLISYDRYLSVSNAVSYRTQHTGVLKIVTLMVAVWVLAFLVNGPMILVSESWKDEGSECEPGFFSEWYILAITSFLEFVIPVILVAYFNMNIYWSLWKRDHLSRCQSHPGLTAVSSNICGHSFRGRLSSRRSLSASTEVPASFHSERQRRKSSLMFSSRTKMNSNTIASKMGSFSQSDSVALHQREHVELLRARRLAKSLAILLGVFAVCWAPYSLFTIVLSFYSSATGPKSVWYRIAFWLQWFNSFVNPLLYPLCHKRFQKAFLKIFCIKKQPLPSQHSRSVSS
Method in brief: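 Baculovirus-transduced HEKf cells in HBSS with 500 nM IBMX were stimulated with 1 μM forskolin, incubated 30 min with test compounds, and cAMP was then read by HTRF after 60 min detection at room temperature. EC50 values came from 4-parameter logistic fits; pKb was derived by Cheng-Prusoff.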

[4] = target: T2, human H4 receptor; test: H4 Antagonist Functional Dynamic Mass Redistribution Assay; conditions: HEKf cells expressing human H4 receptor; functional antagonist pKb by Cheng-Prusoff vs histamine EC80; read-out: Human H4 DMR fpKb (converted)
Method: HEKf cells were infected using baculovirus expressing the human H4 receptor, plated into fibronectin-coated EPIC plates at a density of 10,000 cells/well and incubated overnight at 37° C. The medium on cells was changed to 30 μL HBSS with 20 mM HEPES per well and 30 nL DMSO were added per well by LabCyte ECHO acoustic dispensing. Following 2 h equilibration at room temperature, 30 nL of H4 ligands prepared in DMSO were stamped by LabCyte ECHO acoustic dispensing into seeded EPIC plates and cellular dynamic mass redistribution was monitored using a Corning EPIC plate reader. Following 45 min measurement, 30 nL/well of histamine EC80 was added and monitored to obtain antagonist assay data. Maximum baseline-corrected responses in pm were used to generate concentration response curves. EC50 values were generated using a 4-parameter logistical fit equation to quantify agonist potencies. Functional antagonist affinity values were generated using the Cheng-Prusoff equation to calculate a pKb value using the antagonist assay data.

T1 sequence (Q12809 whole entry): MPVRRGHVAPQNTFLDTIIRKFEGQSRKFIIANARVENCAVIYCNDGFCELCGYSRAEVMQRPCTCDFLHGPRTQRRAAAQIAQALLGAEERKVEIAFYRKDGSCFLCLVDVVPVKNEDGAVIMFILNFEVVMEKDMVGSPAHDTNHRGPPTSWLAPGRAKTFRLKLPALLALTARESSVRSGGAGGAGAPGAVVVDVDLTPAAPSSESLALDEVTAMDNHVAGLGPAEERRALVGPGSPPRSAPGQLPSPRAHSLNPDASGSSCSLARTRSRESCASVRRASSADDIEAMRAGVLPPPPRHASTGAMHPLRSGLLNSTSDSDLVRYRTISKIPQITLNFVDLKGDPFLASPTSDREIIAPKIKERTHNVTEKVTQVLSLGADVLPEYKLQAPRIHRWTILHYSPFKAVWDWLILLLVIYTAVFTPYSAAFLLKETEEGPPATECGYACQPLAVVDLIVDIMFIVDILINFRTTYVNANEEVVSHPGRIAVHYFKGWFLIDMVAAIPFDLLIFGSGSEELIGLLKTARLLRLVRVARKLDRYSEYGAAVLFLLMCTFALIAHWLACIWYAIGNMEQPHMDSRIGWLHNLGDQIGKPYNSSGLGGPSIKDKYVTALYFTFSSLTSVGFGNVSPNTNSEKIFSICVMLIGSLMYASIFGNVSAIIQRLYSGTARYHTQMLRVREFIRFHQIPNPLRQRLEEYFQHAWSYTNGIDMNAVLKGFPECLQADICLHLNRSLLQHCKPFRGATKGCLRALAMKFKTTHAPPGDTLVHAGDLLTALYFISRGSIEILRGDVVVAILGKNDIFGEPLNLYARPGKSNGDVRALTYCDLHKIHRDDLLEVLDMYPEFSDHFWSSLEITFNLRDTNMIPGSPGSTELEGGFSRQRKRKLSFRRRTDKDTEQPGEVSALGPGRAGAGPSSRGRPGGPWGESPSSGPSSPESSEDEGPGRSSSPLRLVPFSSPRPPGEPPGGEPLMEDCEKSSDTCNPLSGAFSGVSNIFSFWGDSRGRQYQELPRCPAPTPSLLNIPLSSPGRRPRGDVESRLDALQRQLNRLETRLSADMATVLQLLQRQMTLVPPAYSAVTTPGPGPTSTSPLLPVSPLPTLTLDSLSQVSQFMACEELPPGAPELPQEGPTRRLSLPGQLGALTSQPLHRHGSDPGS

Row | SMILES | IC50 [1] [nM] | inhibition at 30 µM [2] [%] | Kb [3] [nM] | Kb [4] [nM]
1 | CN[C@@H]1CCN(c2nc(N)nc3c2OC[C@@H](C(C)C)N3)C1 [Example 1-4, (R)-7-Isopropyl-4-((R)-3-(methylamino)pyrrolidin-1-yl)-7,8-dihydro-6H-pyrimido[5,4-b][1,4]oxazin-2-amine] | ≥ 100000 | 20 | 0.794 | –
2 | CN[C@@H]1CCN(c2nc(N)nc3c2OCC[C@@H](C(C)C)N3)C1 [Example 11-5, (S)-8-Isopropyl-4-((R)-3-(methylamino)pyrrolidin-1-yl)-6,7,8,9-tetrahydropyrimido[5,4-b][1,4]oxazepin-2-amine] | ≥ 100000 | 21 | 0.398 | –
3 | CNC1CN(c2nc(N)nc3c2OCC[C@@H](C(C)C)N3)C1 [Example 13-1, (S)-8-Isopropyl-4-(3-(methylamino)azetidin-1-yl)-6,7,8,9-tetrahydropyrimido[5,4-b][1,4]oxazepin-2-amine] | ≥ 100000 | 15 | 1 | 1.58
4 | CC[C@@H]1CCOc2c(nc(N)nc2N2CC[C@@H](NC)C2)N1 [Example 11-4, (R)-8-Ethyl-4-((R)-3-(methylamino)pyrrolidin-1-yl)-6,7,8,9-tetrahydropyrimido[5,4-b][1,4]oxazepin-2-amine] | ≥ 100000 | 39 | 0.631 | 1.26
5 | CC(C)[C@@H]1CCOc2c(nc(N)nc2N2CC[C@@H](N)C2)N1 [Example 12-1, (S)-4-((R)-3-Aminopyrrolidin-1-yl)-8-isopropyl-6,7,8,9-tetrahydropyrimido[5,4-b][1,4]oxazepin-2-amine] | ≥ 100000 | – | 0.631 | 2.51
